{"source": "ChEMBL document CHEMBL1152560", "about": "“Substituted 2-arylbenzothiazoles as kinase inhibitors: hit-to-lead optimization” (Bioorg Med Chem, 2009)", "key": {"[1]": {"molecular_target": "Receptor-type tyrosine-protein kinase FLT3 (Homo sapiens) (UniProt P36888)", "sequence (P36888 whole entry)": "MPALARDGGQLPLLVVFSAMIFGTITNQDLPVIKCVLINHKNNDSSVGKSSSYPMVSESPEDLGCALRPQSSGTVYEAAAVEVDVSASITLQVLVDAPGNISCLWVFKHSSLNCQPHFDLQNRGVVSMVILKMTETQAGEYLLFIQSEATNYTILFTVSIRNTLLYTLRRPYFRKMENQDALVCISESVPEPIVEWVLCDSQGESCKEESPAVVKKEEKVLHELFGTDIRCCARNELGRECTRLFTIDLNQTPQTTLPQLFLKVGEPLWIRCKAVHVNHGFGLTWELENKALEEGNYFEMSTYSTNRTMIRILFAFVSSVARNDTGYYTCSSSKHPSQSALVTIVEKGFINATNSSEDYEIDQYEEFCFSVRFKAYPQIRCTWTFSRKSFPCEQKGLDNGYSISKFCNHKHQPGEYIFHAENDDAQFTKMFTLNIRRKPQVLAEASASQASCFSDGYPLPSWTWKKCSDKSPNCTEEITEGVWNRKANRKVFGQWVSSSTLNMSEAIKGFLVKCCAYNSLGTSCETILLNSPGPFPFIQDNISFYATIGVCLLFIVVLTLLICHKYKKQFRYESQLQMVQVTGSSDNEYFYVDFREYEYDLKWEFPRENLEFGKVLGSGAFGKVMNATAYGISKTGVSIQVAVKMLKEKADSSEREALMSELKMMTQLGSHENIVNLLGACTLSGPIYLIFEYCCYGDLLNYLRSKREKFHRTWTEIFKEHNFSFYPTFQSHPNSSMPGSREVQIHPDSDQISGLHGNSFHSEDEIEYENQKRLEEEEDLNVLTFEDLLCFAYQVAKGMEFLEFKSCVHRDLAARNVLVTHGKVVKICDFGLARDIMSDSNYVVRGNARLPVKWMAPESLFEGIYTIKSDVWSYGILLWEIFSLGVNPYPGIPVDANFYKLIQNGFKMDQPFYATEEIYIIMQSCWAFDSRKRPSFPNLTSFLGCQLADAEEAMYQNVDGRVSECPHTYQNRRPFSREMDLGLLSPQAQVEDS", "experiment": "Residual activity of wild type FLT3 at 1 uM by microplate scintillation counting"}, "[2]": {"molecular_target": "Casein kinase I isoform gamma-3 (Homo sapiens) (UniProt Q9Y6M4)", "sequence (Q9Y6M4 whole entry, looked up, canonical isoform)": "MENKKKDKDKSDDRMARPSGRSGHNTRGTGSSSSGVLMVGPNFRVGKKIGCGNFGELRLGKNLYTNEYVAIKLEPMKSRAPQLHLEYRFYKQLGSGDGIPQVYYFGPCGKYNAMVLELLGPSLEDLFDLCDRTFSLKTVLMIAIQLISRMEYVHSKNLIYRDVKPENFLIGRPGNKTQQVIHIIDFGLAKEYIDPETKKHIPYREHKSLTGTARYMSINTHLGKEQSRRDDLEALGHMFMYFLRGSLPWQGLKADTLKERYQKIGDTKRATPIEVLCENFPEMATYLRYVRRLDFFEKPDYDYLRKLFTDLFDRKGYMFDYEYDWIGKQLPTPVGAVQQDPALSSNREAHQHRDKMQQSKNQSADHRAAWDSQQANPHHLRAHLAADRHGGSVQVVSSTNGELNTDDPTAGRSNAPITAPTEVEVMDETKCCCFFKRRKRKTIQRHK", "experiment": "Residual activity of CK1gamma3 at 0.1 uM by microplate scintillation counting"}, "[3]": {"molecular_target": "Tyrosine-protein kinase ABL1 (Homo sapiens) (UniProt P00519)", "experiment": "Residual activity of wild type ABL1 at 0.1 uM by microplate scintillation counting"}, "[4]": {"molecular_target": "Ribosomal protein S6 kinase alpha-6 (Homo sapiens) (UniProt Q9UK32)", "sequence (Q9UK32 whole entry)": "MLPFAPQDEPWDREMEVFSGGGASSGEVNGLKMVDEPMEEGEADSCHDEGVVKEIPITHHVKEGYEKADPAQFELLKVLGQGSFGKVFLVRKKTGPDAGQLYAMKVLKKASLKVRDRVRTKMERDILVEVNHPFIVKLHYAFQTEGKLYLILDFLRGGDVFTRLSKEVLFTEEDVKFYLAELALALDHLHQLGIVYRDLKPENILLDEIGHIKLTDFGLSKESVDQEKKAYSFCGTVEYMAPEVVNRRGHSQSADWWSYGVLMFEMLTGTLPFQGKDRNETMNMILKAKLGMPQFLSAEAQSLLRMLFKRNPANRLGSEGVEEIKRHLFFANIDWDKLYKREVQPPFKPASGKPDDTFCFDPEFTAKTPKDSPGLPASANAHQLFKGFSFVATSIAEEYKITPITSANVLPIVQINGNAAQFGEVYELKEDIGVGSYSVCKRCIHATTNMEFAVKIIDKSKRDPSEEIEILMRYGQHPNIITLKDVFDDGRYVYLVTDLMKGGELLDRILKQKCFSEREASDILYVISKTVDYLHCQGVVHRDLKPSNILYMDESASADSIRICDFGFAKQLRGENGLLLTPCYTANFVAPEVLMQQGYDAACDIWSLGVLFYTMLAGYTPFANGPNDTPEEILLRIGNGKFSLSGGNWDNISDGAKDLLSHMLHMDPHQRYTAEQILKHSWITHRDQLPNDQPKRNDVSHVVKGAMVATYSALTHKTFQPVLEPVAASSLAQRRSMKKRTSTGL", "experiment": "Residual activity of RPS6KA6 at 0.1 uM by microplate scintillation counting"}, "[5]": {"molecular_target": "Activated CDC42 kinase 1 (Homo sapiens) (UniProt Q07912)", "sequence (Q07912 whole entry, looked up)": "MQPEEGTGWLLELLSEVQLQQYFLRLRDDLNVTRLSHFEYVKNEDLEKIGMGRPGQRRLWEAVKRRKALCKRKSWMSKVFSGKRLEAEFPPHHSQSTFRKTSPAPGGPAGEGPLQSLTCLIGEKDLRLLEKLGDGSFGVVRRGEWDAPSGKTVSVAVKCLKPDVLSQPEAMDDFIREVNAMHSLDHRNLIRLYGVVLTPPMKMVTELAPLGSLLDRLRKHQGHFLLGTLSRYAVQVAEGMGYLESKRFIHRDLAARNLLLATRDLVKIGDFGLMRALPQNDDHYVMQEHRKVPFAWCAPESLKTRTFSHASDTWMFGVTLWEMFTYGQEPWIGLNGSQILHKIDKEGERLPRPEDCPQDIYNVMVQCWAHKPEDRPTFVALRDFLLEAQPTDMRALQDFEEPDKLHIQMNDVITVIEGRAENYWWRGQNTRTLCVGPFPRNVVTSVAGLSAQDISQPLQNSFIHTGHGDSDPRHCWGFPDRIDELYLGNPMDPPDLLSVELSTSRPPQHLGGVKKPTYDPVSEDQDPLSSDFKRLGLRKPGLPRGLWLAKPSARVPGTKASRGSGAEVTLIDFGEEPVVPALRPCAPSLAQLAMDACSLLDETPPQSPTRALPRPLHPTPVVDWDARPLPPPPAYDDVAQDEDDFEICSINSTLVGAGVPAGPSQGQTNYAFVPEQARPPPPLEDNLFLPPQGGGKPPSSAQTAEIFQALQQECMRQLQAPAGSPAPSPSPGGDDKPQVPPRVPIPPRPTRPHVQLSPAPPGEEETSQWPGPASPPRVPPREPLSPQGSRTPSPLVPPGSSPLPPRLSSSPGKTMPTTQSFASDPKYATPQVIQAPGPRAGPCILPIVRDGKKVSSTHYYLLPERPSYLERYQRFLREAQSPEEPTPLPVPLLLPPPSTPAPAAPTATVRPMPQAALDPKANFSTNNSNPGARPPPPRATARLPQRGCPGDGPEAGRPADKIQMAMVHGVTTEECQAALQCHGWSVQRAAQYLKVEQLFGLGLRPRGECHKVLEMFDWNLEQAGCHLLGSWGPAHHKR", "experiment": "Residual activity of ACK1 at 1 uM by microplate scintillation counting"}, "[6]": {"molecular_target": "Leukocyte tyrosine kinase receptor (Homo sapiens) (UniProt P29376)", "sequence (P29376 whole entry)": "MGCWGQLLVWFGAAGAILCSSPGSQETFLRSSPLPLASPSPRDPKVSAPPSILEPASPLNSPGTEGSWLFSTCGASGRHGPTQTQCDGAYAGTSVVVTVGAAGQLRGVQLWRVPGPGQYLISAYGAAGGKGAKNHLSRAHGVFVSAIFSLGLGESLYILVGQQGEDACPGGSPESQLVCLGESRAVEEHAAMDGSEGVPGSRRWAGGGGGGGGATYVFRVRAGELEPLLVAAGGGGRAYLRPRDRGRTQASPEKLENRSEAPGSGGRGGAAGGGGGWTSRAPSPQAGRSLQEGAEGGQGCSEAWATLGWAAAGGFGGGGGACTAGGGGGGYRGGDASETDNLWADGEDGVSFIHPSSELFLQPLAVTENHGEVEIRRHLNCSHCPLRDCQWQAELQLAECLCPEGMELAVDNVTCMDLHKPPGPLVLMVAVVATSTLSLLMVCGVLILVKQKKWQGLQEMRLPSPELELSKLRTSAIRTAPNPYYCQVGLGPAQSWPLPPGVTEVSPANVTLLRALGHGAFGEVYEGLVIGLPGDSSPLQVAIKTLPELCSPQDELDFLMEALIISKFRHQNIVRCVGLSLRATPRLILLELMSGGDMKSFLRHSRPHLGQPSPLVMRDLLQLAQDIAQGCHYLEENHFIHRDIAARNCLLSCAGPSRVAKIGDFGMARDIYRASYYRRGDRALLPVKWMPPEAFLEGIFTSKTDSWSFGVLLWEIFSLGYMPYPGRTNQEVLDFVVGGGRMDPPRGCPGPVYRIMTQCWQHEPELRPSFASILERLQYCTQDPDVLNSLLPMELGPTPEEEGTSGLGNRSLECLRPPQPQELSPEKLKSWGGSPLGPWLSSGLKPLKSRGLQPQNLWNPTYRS", "experiment": "Residual activity of LTK at 1 uM by microplate scintillation counting"}, "[7]": {"molecular_target": "Macrophage-stimulating protein receptor (Homo sapiens) (UniProt Q04912)", "experiment": "Residual activity of RON at 0.1 uM by microplate scintillation counting"}, "[8]": {"molecular_target": "T1, Ephrin type-A receptor 1 (Homo sapiens) (UniProt P21709)", "T1 sequence (whole entry)": "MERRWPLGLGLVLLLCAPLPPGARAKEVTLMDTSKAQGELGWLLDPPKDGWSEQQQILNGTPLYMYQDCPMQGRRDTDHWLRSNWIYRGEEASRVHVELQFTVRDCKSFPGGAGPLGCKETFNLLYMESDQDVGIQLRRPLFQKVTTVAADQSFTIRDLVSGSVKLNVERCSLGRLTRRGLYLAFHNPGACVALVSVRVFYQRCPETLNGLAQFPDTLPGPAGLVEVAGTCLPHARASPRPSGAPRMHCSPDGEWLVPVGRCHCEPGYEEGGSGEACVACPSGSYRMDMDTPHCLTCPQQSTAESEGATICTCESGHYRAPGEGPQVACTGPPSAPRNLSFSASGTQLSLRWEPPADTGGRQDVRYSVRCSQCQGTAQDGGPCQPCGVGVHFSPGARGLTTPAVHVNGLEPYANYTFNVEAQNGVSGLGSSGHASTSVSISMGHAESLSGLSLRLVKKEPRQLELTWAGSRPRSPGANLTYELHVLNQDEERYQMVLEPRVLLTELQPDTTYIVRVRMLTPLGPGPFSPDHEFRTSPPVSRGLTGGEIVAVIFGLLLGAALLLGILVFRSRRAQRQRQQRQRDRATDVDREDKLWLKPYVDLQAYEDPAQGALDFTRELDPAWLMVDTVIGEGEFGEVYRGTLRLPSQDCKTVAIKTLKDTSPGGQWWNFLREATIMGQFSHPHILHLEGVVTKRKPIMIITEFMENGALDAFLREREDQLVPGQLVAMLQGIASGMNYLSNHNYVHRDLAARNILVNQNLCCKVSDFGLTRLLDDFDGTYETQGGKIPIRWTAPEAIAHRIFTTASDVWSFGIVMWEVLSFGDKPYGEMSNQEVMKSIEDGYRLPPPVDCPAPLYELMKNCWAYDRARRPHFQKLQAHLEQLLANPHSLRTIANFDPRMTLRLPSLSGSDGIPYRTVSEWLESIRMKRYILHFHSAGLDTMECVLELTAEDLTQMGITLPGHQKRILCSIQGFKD", "experiment": "Residual activity of EPHA1 at 1 uM by microplate scintillation counting"}, "[9]": {"molecular_target": "T2, cGMP-dependent protein kinase 2 (Homo sapiens) (UniProt Q13237)", "T2 sequence (whole entry)": "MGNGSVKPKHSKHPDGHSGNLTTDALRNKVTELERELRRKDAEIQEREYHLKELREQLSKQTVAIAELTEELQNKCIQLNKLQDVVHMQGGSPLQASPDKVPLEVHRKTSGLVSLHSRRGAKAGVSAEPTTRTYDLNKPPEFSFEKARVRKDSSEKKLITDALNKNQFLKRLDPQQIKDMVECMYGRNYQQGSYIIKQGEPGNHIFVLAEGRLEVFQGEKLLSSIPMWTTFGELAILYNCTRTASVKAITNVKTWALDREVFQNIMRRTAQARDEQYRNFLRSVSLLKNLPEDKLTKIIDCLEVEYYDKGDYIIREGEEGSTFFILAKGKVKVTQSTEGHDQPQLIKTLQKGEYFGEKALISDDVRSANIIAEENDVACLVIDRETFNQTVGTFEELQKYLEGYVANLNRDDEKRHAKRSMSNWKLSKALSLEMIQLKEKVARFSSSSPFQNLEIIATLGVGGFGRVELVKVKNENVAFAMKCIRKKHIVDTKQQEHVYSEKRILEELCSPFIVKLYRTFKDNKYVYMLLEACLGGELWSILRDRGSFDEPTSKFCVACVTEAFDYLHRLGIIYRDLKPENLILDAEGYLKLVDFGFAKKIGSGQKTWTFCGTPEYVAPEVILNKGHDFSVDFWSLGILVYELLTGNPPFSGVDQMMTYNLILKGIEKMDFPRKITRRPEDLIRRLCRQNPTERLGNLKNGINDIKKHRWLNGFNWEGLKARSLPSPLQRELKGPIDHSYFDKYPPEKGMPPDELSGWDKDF", "experiment": "Residual activity of PRKG2 at 1 uM by microplate scintillation counting"}, "[10]": {"molecular_target": "Epidermal growth factor receptor (Homo sapiens, UniProt P00533)", "experiment": "Inhibition of wild type EGF-R by microplate scintillation counting"}, "[11]": {"molecular_target": "T3, Megakaryocyte-associated tyrosine-protein kinase (Homo sapiens) (UniProt P42679)", "T3 sequence (whole entry)": "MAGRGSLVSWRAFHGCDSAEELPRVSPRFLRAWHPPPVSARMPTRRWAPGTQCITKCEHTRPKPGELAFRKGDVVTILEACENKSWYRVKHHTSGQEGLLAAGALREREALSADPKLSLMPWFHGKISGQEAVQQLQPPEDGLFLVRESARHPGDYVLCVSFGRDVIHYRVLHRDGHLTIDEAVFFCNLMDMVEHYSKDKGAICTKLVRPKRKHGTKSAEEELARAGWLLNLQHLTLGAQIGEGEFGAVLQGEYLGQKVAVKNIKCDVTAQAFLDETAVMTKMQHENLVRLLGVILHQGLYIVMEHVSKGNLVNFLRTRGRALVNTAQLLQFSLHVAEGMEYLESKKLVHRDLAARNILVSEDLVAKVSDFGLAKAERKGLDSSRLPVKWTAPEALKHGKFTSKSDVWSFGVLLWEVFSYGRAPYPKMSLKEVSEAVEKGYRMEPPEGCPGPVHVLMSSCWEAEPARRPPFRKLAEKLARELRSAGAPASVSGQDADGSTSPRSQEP", "experiment": "Residual activity of MATK at 0.1 uM by microplate scintillation counting"}}, "data": [{"smiles": "COc1cc2c(Oc3ccc(-c4nc5ccccc5s4)cc3)ncnc2cc1OCCCN1CCN(C)CC1", "values": [{"measurement": "residual activity", "setting": "[1]", "result": 97, "unit": "%"}, {"measurement": "residual activity", "setting": "[2]", "result": 76, "unit": "%"}, {"measurement": "residual activity", "setting": "[3]", "result": 94, "unit": "%"}, {"measurement": "residual activity", "setting": "[4]", "result": 96, "unit": "%"}, {"measurement": "residual activity", "setting": "[5]", "result": 76, "unit": "%"}, {"measurement": "residual activity", "setting": "[6]", "result": 123, "unit": "%"}, {"measurement": "residual activity", "setting": "[7]", "result": 74, "unit": "%"}, {"measurement": "residual activity", "setting": "[8]", "result": 140, "unit": "%"}, {"measurement": "residual activity", "setting": "[9]", "result": 96, "unit": "%"}, {"measurement": "IC50", "setting": "[10]", "result": "> 10", "unit": "µM"}, {"measurement": "residual activity", "setting": "[11]", "result": 107, "unit": "%"}]}, {"smiles": "COc1cc2c(Oc3ccc(-c4nc5ccccc5s4)cc3F)ncnc2cc1OCCCN1CCN(C)CC1", "values": [{"measurement": "residual activity", "setting": "[1]", "result": 113, "unit": "%"}, {"measurement": "residual activity", "setting": "[2]", "result": 90, "unit": "%"}, {"measurement": "residual activity", "setting": "[3]", "result": 100, "unit": "%"}, {"measurement": "residual activity", "setting": "[4]", "result": 95, "unit": "%"}, {"measurement": "residual activity", "setting": "[5]", "result": 90, "unit": "%"}, {"measurement": "residual activity", "setting": "[6]", "result": 127, "unit": "%"}, {"measurement": "residual activity", "setting": "[7]", "result": 72, "unit": "%"}, {"measurement": "residual activity", "setting": "[8]", "result": 145, "unit": "%"}, {"measurement": "residual activity", "setting": "[9]", "result": 85, "unit": "%"}, {"measurement": "IC50", "setting": "[10]", "result": "> 10", "unit": "µM"}, {"measurement": "residual activity", "setting": "[11]", "result": 96, "unit": "%"}]}, {"smiles": "COc1cc2c(Oc3ccc(-c4nc5ccccc5s4)cc3)ncnc2cc1OCCCN1CCCC1", "values": [{"measurement": "residual activity", "setting": "[1]", "result": 90, "unit": "%"}, {"measurement": "residual activity", "setting": "[2]", "result": 94, "unit": "%"}, {"measurement": "residual activity", "setting": "[3]", "result": 97, "unit": "%"}, {"measurement": "residual activity", "setting": "[4]", "result": 92, "unit": "%"}, {"measurement": "residual activity", "setting": "[5]", "result": 106, "unit": "%"}, {"measurement": "residual activity", "setting": "[6]", "result": 143, "unit": "%"}, {"measurement": "residual activity", "setting": "[7]", "result": 90, "unit": "%"}, {"measurement": "residual activity", "setting": "[8]", "result": 147, "unit": "%"}, {"measurement": "residual activity", "setting": "[9]", "result": 84, "unit": "%"}, {"measurement": "IC50", "setting": "[10]", "result": "> 10", "unit": "µM"}, {"measurement": "residual activity", "setting": "[11]", "result": 109, "unit": "%"}]}]}
